From PubChem BioAssay (NCI)
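Cultured in 96-well plates, cells were exposed to test compound for 48 hours across five concentrations. TGI is the concentration that stops growth completely.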

Assays:
Experiment in all cases: DTP human tumour cell line panel, 48 h
M19-MEL melanoma = test system: M19-MEL melanoma
SNB-78 CNS = test system: SNB-78 CNS
LXFL 529 NSCLC = test system: LXFL 529 NSCLC
HOP-18 NSCLC = test system: HOP-18 NSCLC
XF 498 CNS = test system: XF 498 CNS

`Nc1nc(SCc2ccccc2Cl)c2[nH]cnc2n1` was tested, and the TGI (M19-MEL melanoma) was over 100 µM, the TGI (SNB-78 CNS) was over 100 µM and the TGI (LXFL 529 NSCLC) was over 100 µM.

For `C=CCCC1(C)CCCNC1=S` (stereo not given), the TGI (HOP-18 NSCLC) was over 100 µM and the TGI (XF 498 CNS) was over 100 µM.
